# Measurements reported in patent US20050256134A1, “Use of creatine analogues and creatine kinase modulators for the prevention and treatment of glucose metabolic disorders” (AVICENA GROUP, INC., priority 1995, published 2005).
# Experiments:
# [1] = tested on: terminal cancer patients; assay: Phase I/II open label dose escalation study, glucose levels, 3 hour continuous infusion; format: in vivo, human
# Protocol: Cyclocreatine was tested in humans in a phase I/II open label dose escalation study. […] Cyclocreatine was administered at doses that ranged from 10 mg/Kg to 100 mg/Kg. The schedule of administration of cyclocreatine is described in Table 4.
# Cohorts of 3 patients were administered drug at each dose level, via a 3 hour continuous infusion in one liter volume of saline. The first week patients received cyclocreatine once, the second week patients received cyclocreatine twice, the third week three times, the fourth week four times, the fifth week five times. On weeks six and seven, no drug was administered to allow the drug to wash out. On week eight, cyclocreatine was given five times. The study included a total of 23 patients (18 male, 5 female) with a median age of 71 years (range 54-85). The patients had different types of malignancies. Eligibility requirements included patients who have failed standard therapy or for whom no therapy was available, normal organ function, have recovered from prior therapies, probability of survival of greater than three months. Reasons for exclusion included: major surgery, life threatening concurrent illness and CNS metastasis. Blood samples were collected at baseline and 1 day before and after the last weekly drug administration on days 1, 7, 9, 14, 17, 21, 25, 28, 33, 40, 47, 49, 54, 61, and 69. Glucose levels were determined for these collected blood samples. […] Not all patients experienced a significant drop in glucose although the trend was there. FIGS. 14 and 15 illustrate graphically individual patients' glucose levels upon treatment with 60 mg/Kg or 80 mg/Kg cyclocreatine. Patient (A) at the 80 mg/Kg dose was diabetic and had many serious complications due to their disease. […] It should be noted that an insufficient number of readings was made shortly after drug administration. It is interesting to note that several patients who were diabetic or had higher glucose levels than normal did respond to cyclocreatine, onen example being illustrated in FIG. 16.
# [2] = tested on: creatine kinase; settings: forward reaction, in vitro and in vivo; cited from earlier work
compound,measurement,setting,value
NC1=NCCN1CC(=O)O [cyclocreatine],patients with significant hypoglycemia,[1]; 80 mg/Kg,2 out of 3
same,patients with significant hypoglycemia,[1]; 100 mg/Kg,2 out of 7
same,Glucose,"[1]; Ave, 40 mg/Kg, Study Day 0",125 mg/dL
same,Glucose,"[1]; Ave, 40 mg/Kg, Study Day 1",105 mg/dL
same,Glucose,"[1]; Ave, 40 mg/Kg, Study Day 7",119 mg/dL
same,Glucose,"[1]; Ave, 40 mg/Kg, Study Day 9",125 mg/dL
same,Glucose,"[1]; Ave, 40 mg/Kg, Study Day 14",129 mg/dL
same,Glucose,"[1]; Ave, 40 mg/Kg, Study Day 17",139 mg/dL
same,Glucose,"[1]; Ave, 40 mg/Kg, Study Day 21",112 mg/dL
same,Glucose,"[1]; Ave, 40 mg/Kg, Study Day 25",161 mg/dL
same,Glucose,"[1]; Ave, 40 mg/Kg, Study Day 28",122 mg/dL
same,Glucose,"[1]; Ave, 40 mg/Kg, Study Day 33",149 mg/dL
same,Glucose,"[1]; Ave, 40 mg/Kg, Study Day 40",104 mg/dL
same,Glucose,"[1]; Ave, 40 mg/Kg, Study Day 47",99 mg/dL
same,Glucose,"[1]; Ave, 40 mg/Kg, Study Day 49",128 mg/dL
same,Glucose,"[1]; Ave, 40 mg/Kg, Study Day 54",132 mg/dL
same,Glucose,"[1]; Ave, 40 mg/Kg, Study Day 61",105 mg/dL
same,Glucose,"[1]; Ave, 40 mg/Kg, Study Day 69",119 mg/dL
same,Glucose,"[1]; Ave, 60 mg/Kg, Study Day 7",37 mg/dL
same,Glucose,"[1]; Patient 2, 7, 40 mg/Kg, Study Day 0",115 mg/dL
same,Glucose,"[1]; Patient 2, 7, 40 mg/Kg, Study Day 1",95 mg/dL
same,Glucose,"[1]; Patient 2, 7, 40 mg/Kg, Study Day 7",153 mg/dL
same,Glucose,"[1]; Patient 2, 7, 40 mg/Kg, Study Day 9",123 mg/dL
same,Glucose,"[1]; Patient 2, 7, 40 mg/Kg, Study Day 14",102 mg/dL
same,Glucose,"[1]; Patient 2, 7, 40 mg/Kg, Study Day 17",117 mg/dL
same,Glucose,"[1]; Patient 2, 7, 40 mg/Kg, Study Day 21",104 mg/dL
same,Glucose,"[1]; Patient 2, 7, 40 mg/Kg, Study Day 25",122 mg/dL
same,Glucose,"[1]; Patient 2, 7, 40 mg/Kg, Study Day 28",154 mg/dL
same,Glucose,"[1]; Patient 2, 8, 40 mg/Kg, Study Day 0",222 mg/dL
same,Glucose,"[1]; Patient 2, 8, 40 mg/Kg, Study Day 1",116 mg/dL
same,Glucose,"[1]; Patient 2, 8, 40 mg/Kg, Study Day 9",148 mg/dL
same,Glucose,"[1]; Patient 2, 8, 40 mg/Kg, Study Day 14",184 mg/dL
same,Glucose,"[1]; Patient 2, 8, 40 mg/Kg, Study Day 17",251 mg/dL
same,Glucose,"[1]; Patient 2, 8, 40 mg/Kg, Study Day 25",278 mg/dL
same,Glucose,"[1]; Patient 2, 8, 40 mg/Kg, Study Day 33",244 mg/dL
same,Glucose,"[1]; Patient 2, 8, 40 mg/Kg, Study Day 40",139 mg/dL
same,Glucose,"[1]; Patient 2, 8, 40 mg/Kg, Study Day 49",129 mg/dL
same,Glucose,"[1]; Patient 2, 8, 40 mg/Kg, Study Day 54",195 mg/dL
same,Glucose,"[1]; Patient 2, 8, 40 mg/Kg, Study Day 69",205 mg/dL
same,Glucose,"[1]; Patient 2, 9, 40 mg/Kg, Study Day 0",98 mg/dL
same,Glucose,"[1]; Patient 2, 9, 40 mg/Kg, Study Day 1",87 mg/dL
same,Glucose,"[1]; Patient 2, 9, 40 mg/Kg, Study Day 7",117 mg/dL
same,Glucose,"[1]; Patient 2, 9, 40 mg/Kg, Study Day 9",148 mg/dL
same,Glucose,"[1]; Patient 2, 9, 40 mg/Kg, Study Day 14",126 mg/dL
same,Glucose,"[1]; Patient 2, 9, 40 mg/Kg, Study Day 17",139 mg/dL
same,Glucose,"[1]; Patient 2, 9, 40 mg/Kg, Study Day 21",90 mg/dL
same,Glucose,"[1]; Patient 2, 9, 40 mg/Kg, Study Day 25",114 mg/dL
same,Glucose,"[1]; Patient 2, 9, 40 mg/Kg, Study Day 28",87 mg/dL
same,Glucose,"[1]; Patient 2, 9, 40 mg/Kg, Study Day 33",121 mg/dL
same,Glucose,"[1]; Patient 2, 9, 40 mg/Kg, Study Day 40",92 mg/dL
same,Glucose,"[1]; Patient 2, 9, 40 mg/Kg, Study Day 47",105 mg/dL
same,Glucose,"[1]; Patient 2, 9, 40 mg/Kg, Study Day 49",132 mg/dL
same,Glucose,"[1]; Patient 2, 9, 40 mg/Kg, Study Day 54",105 mg/dL
same,Glucose,"[1]; Patient 2, 9, 40 mg/Kg, Study Day 61",104 mg/dL
same,Glucose,"[1]; Patient 2, 9, 40 mg/Kg, Study Day 69",92 mg/dL
same,Glucose,"[1]; Patient 8, 40 mg/Kg, Study Day 0",94 mg/dL
same,Glucose,"[1]; Patient 8, 40 mg/Kg, Study Day 1",114 mg/dL
same,Glucose,"[1]; Patient 8, 40 mg/Kg, Study Day 7",96 mg/dL
same,Glucose,"[1]; Patient 8, 40 mg/Kg, Study Day 9",115 mg/dL
same,Glucose,"[1]; Patient 8, 40 mg/Kg, Study Day 14",87 mg/dL
same,Glucose,"[1]; Patient 8, 40 mg/Kg, Study Day 17",91 mg/dL
same,Glucose,"[1]; Patient 8, 40 mg/Kg, Study Day 21",103 mg/dL
same,Glucose,"[1]; Patient 8, 40 mg/Kg, Study Day 25",96 mg/dL
same,Glucose,"[1]; Patient 8, 40 mg/Kg, Study Day 28",125 mg/dL
same,Glucose,"[1]; Patient 8, 40 mg/Kg, Study Day 33",122 mg/dL
same,Glucose,"[1]; Patient 8, 40 mg/Kg, Study Day 40",67 mg/dL
same,Glucose,"[1]; Patient 8, 40 mg/Kg, Study Day 47",116 mg/dL
same,Glucose,"[1]; Patient 8, 40 mg/Kg, Study Day 49",122 mg/dL
same,Glucose,"[1]; Patient 8, 40 mg/Kg, Study Day 54",136 mg/dL
same,Glucose,"[1]; Patient 8, 40 mg/Kg, Study Day 61",102 mg/dL
same,Glucose,"[1]; Patient 8, 40 mg/Kg, Study Day 69",135 mg/dL
same,Glucose,"[1]; Patient 9, 40 mg/Kg, Study Day 0",118 mg/dL
same,Glucose,"[1]; Patient 9, 40 mg/Kg, Study Day 1",114 mg/dL
same,Glucose,"[1]; Patient 9, 40 mg/Kg, Study Day 7",73 mg/dL
same,Glucose,"[1]; Patient 9, 40 mg/Kg, Study Day 9",130 mg/dL
same,Glucose,"[1]; Patient 9, 40 mg/Kg, Study Day 14",151 mg/dL
same,Glucose,"[1]; Patient 9, 40 mg/Kg, Study Day 17",145 mg/dL
same,Glucose,"[1]; Patient 9, 40 mg/Kg, Study Day 21",156 mg/dL
same,Glucose,"[1]; Patient 9, 40 mg/Kg, Study Day 25",210 mg/dL
same,Glucose,"[1]; Patient 9, 40 mg/Kg, Study Day 28",151 mg/dL
same,Glucose,"[1]; Patient 9, 40 mg/Kg, Study Day 33",109 mg/dL
same,Glucose,"[1]; Patient 9, 40 mg/Kg, Study Day 40",128 mg/dL
same,Glucose,"[1]; Patient 9, 40 mg/Kg, Study Day 47",75 mg/dL
same,Glucose,"[1]; Patient 9, 40 mg/Kg, Study Day 54",145 mg/dL
same,Glucose,"[1]; Patient 9, 40 mg/Kg, Study Day 61",121 mg/dL
same,Glucose,"[1]; Patient 9, 40 mg/Kg, Study Day 69",89 mg/dL
same,Glucose,"[1]; Patient 10, 40 mg/Kg, Study Day 0",100 mg/dL
same,Glucose,"[1]; Patient 10, 40 mg/Kg, Study Day 7",156 mg/dL
same,Glucose,"[1]; Patient 10, 40 mg/Kg, Study Day 9",84 mg/dL
same,Glucose,"[1]; Patient 10, 40 mg/Kg, Study Day 14",123 mg/dL
same,Glucose,"[1]; Patient 10, 40 mg/Kg, Study Day 17",93 mg/dL
same,Glucose,"[1]; Patient 10, 40 mg/Kg, Study Day 21",106 mg/dL
same,Glucose,"[1]; Patient 10, 40 mg/Kg, Study Day 25",143 mg/dL
same,Glucose,"[1]; Patient 10, 40 mg/Kg, Study Day 28",91 mg/dL
same,Glucose,"[1]; Patient 10, 40 mg/Kg, Study Day 40",94 mg/dL
same,Glucose,"[1]; Patient 10, 40 mg/Kg, Study Day 47",100 mg/dL
same,Glucose,"[1]; Patient 10, 40 mg/Kg, Study Day 54",79 mg/dL
same,Glucose,"[1]; Patient 10, 40 mg/Kg, Study Day 61",92 mg/dL
same,Glucose,"[1]; Patient 10, 40 mg/Kg, Study Day 69",74 mg/dL
same,Glucose,"[1]; Patient 11, 60 mg/Kg, Study Day 7",141 mg/dL
same,Glucose,"[1]; Patient 12, 60 mg/Kg, Study Day 7",72 mg/dL
same,Glucose,"[1]; Patient 13, 60 mg/Kg, Study Day 7",48 mg/dL
same,glucose response,"[1]; Patient (A), diabetic, 80 mg/Kg",did not seem to respond well
same,clinical observation,[1]; highest tested drug concentrations (80 and 100 mg/Kg),became lethargic and hypoglycemic and required immediate intervention to revert glucose levels
same,Glucose Levels,[1]; lower tested drug concentrations,trend towards a drop in glucose levels shortly after drug administration
same,glucose response,[1]; several patients who were diabetic or had higher glucose levels than normal,did respond
same,phosphorylation by creatine kinase,[2],phosphorylated efficiently
